The target of one assay is GLP-1R (Homo sapiens, UniProt P43220). Briefly: HitHunter cAMP assay (GLP-1R). Type of assay: cell-based. To be noted: cAMP; for Emax: read-out: (Emax) GLP-1R. On the procedure: (§1) Suspension cells were harvested and resuspended in 1×HBSS (+10 mM HEPES, 625 μM IBMX, 0.2% BSA) according to the following procedure: 5 μL of 2× cell suspension+1× antibody were added to each well, where the optimal cell density was 10,000 cells per well in a low volume 384-well plate. Agonist serial dilutions in a separate 384 well dilution plate in a 22-point series of 2× dilutions of agonist in DMSO were performed as follows. 80 μL of the highest concentration of Agonist/DMSO was added to well No. 1. 40 μL was removed from well No. 1 and added it to well No. 2, followed by gentle mixing. […] This process was repeated until well No. 22. Additional serial dilutions for additional agonists were set up in a similar manner. 50 nL of each 2× agonist serial dilution was added in duplicate to the designated agonist rows of the assay plate using the Labcyte ECHO. Assay plate was incubated for 30 minutes at room temperature. Following agonist incubation, 5 μL of cAMP Antibody Reagent was added to all wells. […] Plates were spun down briefly. Assay plate was incubated for 1 hour at room temperature in the dark for the immunocompetition reaction to occur. […] Plates were spun down briefly. Assay plate was incubated O/N at room temperature in the dark. Samples were read on Tecan i-control plate reader using luminescence mode with 300 ms integration time. Data analysis was performed using GraphPad Prism.
(Cyclic AMP is a second messenger, typically raised through Gs and lowered through Gi signalling.)

Another assay has as its target T1, GIP-R (Homo sapiens, UniProt P48546).
T1 sequence (P48546 22-466): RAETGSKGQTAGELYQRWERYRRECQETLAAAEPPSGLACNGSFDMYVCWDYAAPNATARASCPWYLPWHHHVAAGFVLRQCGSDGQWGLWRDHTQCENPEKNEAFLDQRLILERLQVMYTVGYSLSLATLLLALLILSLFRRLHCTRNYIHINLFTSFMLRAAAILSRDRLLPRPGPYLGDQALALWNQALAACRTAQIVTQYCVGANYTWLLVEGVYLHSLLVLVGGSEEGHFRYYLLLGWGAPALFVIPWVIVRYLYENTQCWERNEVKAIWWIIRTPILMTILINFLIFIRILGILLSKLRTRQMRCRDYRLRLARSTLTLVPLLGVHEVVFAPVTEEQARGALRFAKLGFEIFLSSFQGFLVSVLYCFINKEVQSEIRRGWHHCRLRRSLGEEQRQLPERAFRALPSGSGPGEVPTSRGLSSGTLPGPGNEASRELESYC
As to the kind of experiment: HitHunter cAMP assay (GIP-R). The class given is cell-based. To be noted: Table 3A; cAMP; read-out: (Emax) GIP-R. How it is done:
as §1

Where [1] appears, read: Table 3A, read-out: EC50 GLP-1R/nM.

Where two headings read alike, the source gives them in different places.

GLP-1R, sequence (P43220 24-463): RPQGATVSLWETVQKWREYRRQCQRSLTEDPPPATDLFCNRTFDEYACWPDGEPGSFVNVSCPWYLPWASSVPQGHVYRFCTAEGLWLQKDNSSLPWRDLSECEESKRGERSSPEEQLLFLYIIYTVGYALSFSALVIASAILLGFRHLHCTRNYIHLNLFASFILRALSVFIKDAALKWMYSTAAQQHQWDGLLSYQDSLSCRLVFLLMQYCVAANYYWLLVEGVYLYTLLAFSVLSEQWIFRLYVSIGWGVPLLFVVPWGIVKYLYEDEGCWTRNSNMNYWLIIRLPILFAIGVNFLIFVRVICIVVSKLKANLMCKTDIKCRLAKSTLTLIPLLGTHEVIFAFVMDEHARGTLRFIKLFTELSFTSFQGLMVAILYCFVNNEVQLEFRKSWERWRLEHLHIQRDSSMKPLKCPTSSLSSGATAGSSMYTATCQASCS

By Emax is commonly meant the greatest response seen or fitted, relative to the assay's reference. As for `CCCCCCCCCCCCCCCC(=O)N[C@@H](CCC(=O)NCCCC[C@H](NC(=O)[C@H](CO)NC(=O)[C@@H]1CCCN1C(=O)[C@@H]1CCCN1C(=O)[C@@H]1CCCN1C(=O)[C@H](C)NC(=O)CNC(=O)[C@H](CO)NC(=O)[C@H](CO)NC(=O)[C@@H]1CCCN1C(=O)CNC(=O)CNC(=O)[C@H](C)NC(=O)[C@H](CC(C)C)NC(=O)[C@H](CC(C)C)NC(=O)[C@H](Cc1c[nH]c2ccccc12)NC(=O)[C@H](CC(N)=O)NC(=O)[C@@H](NC(=O)[C@H](Cc1ccccc1)NC(=O)[C@H](CCC(=O)O)NC(=O)C(C)(C)NC(=O)[C@H](C)NC(=O)[C@H](C)NC(=O)[C@H](CCC(N)=O)NC(=O)[C@H](CCCCN)NC(=O)[C@H](CC(=O)O)NC(=O)[C@H](CC(C)C)NC(=O)[C@H](Cc1ccc(O)cc1)NC(=O)[C@@H](NC(=O)[C@H](CO)NC(=O)[C@H](Cc1ccc(O)cc1)NC(=O)[C@H](CC(=O)O)NC(=O)[C@H](CO)NC(=O)[C@@H](NC(=O)[C@H](Cc1ccccc1)NC(=O)[C@@H](NC(=O)CNC(=O)[C@H](CCC(=O)O)NC(=O)CSCC(=O)NCCN1C(=O)CC(C)(C(C)C)C1=O)[C@@H](C)O)[C@@H](C)O)[C@@H](C)CC)C(C)C)C(N)=O)C(=O)O` (mixture of isomers) [Compound 101], the EC50 at GLP-1R (EC50 GLP-1R/nM, Table 3) fell in the range of 10 to 100 nM; on GLP-1R (EC50 GLP-1R/nM, Table 3A) it was 10 to 100 nM. Further, the Emax at GLP-1R (Table 3) and at GLP-1R (Table 3A) was 92% in each case. As to `CCCCCCCCCCCCCCCC(=O)N[C@@H](CCC(=O)NCCCC[C@H](NC(=O)[C@H](CO)NC(=O)[C@@H]1CCCN1C(=O)[C@@H]1CCCN1C(=O)[C@@H]1CCCN1C(=O)[C@H](C)NC(=O)CNC(=O)[C@H](CO)NC(=O)[C@H](CO)NC(=O)[C@@H]1CCCN1C(=O)CNC(=O)CNC(=O)[C@H](C)NC(=O)[C@H](CC(C)C)NC(=O)[C@H](CC(C)C)NC(=O)[C@H](Cc1c[nH]c2ccccc12)NC(=O)[C@H](CC(N)=O)NC(=O)[C@@H](NC(=O)[C@H](Cc1ccccc1)NC(=O)[C@H](CCC(=O)O)NC(=O)C(C)(C)NC(=O)[C@H](C)NC(=O)[C@H](C)NC(=O)[C@H](CCC(N)=O)NC(=O)[C@H](CCCCN)NC(=O)[C@H](CC(=O)O)NC(=O)[C@H](CC(C)C)NC(=O)[C@H](Cc1ccc(O)cc1)NC(=O)[C@@H](NC(=O)[C@H](CO)NC(=O)[C@H](Cc1ccc(O)cc1)NC(=O)[C@H](CC(=O)O)NC(=O)[C@H](CO)NC(=O)[C@@H](NC(=O)[C@H](Cc1ccccc1)NC(=O)[C@@H](NC(=O)CNC(=O)[C@H](CCC(=O)O)NC(=O)CSCC(=O)NCCN1CC[C@@H](O)CC1=O)[C@@H](C)O)[C@@H](C)O)[C@@H](C)CC)C(C)C)C(N)=O)C(=O)O` (single isomer, unassigned) [Compound 203], the maximal response (Emax) at GIP-R turned out to be 44%. Still for that read-out and setting: the same measure for `CCCCCCCCCCCCCCCC(=O)N[C@@H](CCC(=O)NCCCC[C@H](NC(=O)[C@H](CO)NC(=O)[C@@H]1CCCN1C(=O)[C@@H]1CCCN1C(=O)[C@@H]1CCCN1C(=O)[C@H](C)NC(=O)CNC(=O)[C@H](CO)NC(=O)[C@H](CO)NC(=O)[C@@H]1CCCN1C(=O)CNC(=O)CNC(=O)[C@H](C)NC(=O)[C@H](CC(C)C)NC(=O)[C@H](CC(C)C)NC(=O)[C@H](Cc1c[nH]c2ccccc12)NC(=O)[C@H](CC(N)=O)NC(=O)[C@@H](NC(=O)[C@H](Cc1ccccc1)NC(=O)[C@H](CCC(=O)O)NC(=O)C(C)(C)NC(=O)[C@H](C)NC(=O)[C@H](C)NC(=O)[C@H](CCC(N)=O)NC(=O)[C@H](CCCCN)NC(=O)[C@H](CC(=O)O)NC(=O)[C@H](CC(C)C)NC(=O)[C@H](Cc1ccc(O)cc1)NC(=O)[C@@H](NC(=O)[C@H](CO)NC(=O)[C@H](Cc1ccc(O)cc1)NC(=O)[C@H](CC(=O)O)NC(=O)[C@H](CO)NC(=O)[C@@H](NC(=O)[C@H](Cc1ccccc1)NC(=O)[C@@H](NC(=O)CNC(=O)[C@H](CCC(=O)O)NC(=O)CSCC(=O)NCCN1CCC[C@H](C)C1=O)[C@@H](C)O)[C@@H](C)O)[C@@H](C)CC)C(C)C)C(N)=O)C(=O)O` (single isomer, unassigned) [Compound 207]: 68%. Same read-out and setting: the same measure for `CCCCCCCCCCCCCCCC(=O)N[C@@H](CCC(=O)NCCCC[C@H](NC(=O)[C@H](CO)NC(=O)[C@@H]1CCCN1C(=O)[C@@H]1CCCN1C(=O)[C@@H]1CCCN1C(=O)[C@H](C)NC(=O)CNC(=O)[C@H](CO)NC(=O)[C@H](CO)NC(=O)[C@@H]1CCCN1C(=O)CNC(=O)CNC(=O)[C@H](C)NC(=O)[C@H](CC(C)C)NC(=O)[C@H](CC(C)C)NC(=O)[C@H](Cc1c[nH]c2ccccc12)NC(=O)[C@H](CC(N)=O)NC(=O)[C@@H](NC(=O)[C@H](Cc1ccccc1)NC(=O)[C@H](CCC(=O)O)NC(=O)C(C)(C)NC(=O)[C@H](C)NC(=O)[C@H](C)NC(=O)[C@H](CCC(N)=O)NC(=O)[C@H](CCCCN)NC(=O)[C@H](CC(=O)O)NC(=O)[C@H](CC(C)C)NC(=O)[C@H](Cc1ccc(O)cc1)NC(=O)[C@@H](NC(=O)[C@H](CO)NC(=O)[C@H](Cc1ccc(O)cc1)NC(=O)[C@H](CC(=O)O)NC(=O)[C@H](CO)NC(=O)[C@@H](NC(=O)[C@H](Cc1ccccc1)NC(=O)[C@@H](NC(=O)CNC(=O)[C@H](CCC(=O)O)NC(=O)CSCC(=O)NCCN1CCC[C@@H](C)C1=O)[C@@H](C)O)[C@@H](C)O)[C@@H](C)CC)C(C)C)C(N)=O)C(=O)O` (single isomer, unassigned) [Compound 208]: 59%.

`CCCCCCCCCCCCCCCC(=O)N[C@@H](CCC(=O)NCCCC[C@H](NC(=O)[C@H](CO)NC(=O)[C@@H]1CCCN1C(=O)[C@@H]1CCCN1C(=O)[C@@H]1CCCN1C(=O)[C@H](C)NC(=O)CNC(=O)[C@H](CO)NC(=O)[C@H](CO)NC(=O)[C@@H]1CCCN1C(=O)CNC(=O)CNC(=O)[C@H](C)NC(=O)[C@H](CC(C)C)NC(=O)[C@H](CC(C)C)NC(=O)[C@H](Cc1c[nH]c2ccccc12)NC(=O)[C@H](CC(N)=O)NC(=O)[C@@H](NC(=O)[C@H](Cc1ccccc1)NC(=O)[C@H](CCC(=O)O)NC(=O)C(C)(C)NC(=O)[C@H](C)NC(=O)[C@H](C)NC(=O)[C@H](CCC(N)=O)NC(=O)[C@H](CCCCN)NC(=O)[C@H](CC(=O)O)NC(=O)[C@H](CC(C)C)NC(=O)[C@H](Cc1ccc(O)cc1)NC(=O)[C@@H](NC(=O)[C@H](CO)NC(=O)[C@H](Cc1ccc(O)cc1)NC(=O)[C@H](CC(=O)O)NC(=O)[C@H](CO)NC(=O)[C@@H](NC(=O)[C@H](Cc1ccccc1)NC(=O)[C@@H](NC(=O)CNC(=O)[C@H](CCC(=O)O)NC(=O)C(=O)NCCN1CCCCC1=O)[C@@H](C)O)[C@@H](C)O)[C@@H](C)CC)C(C)C)C(N)=O)C(=O)O` [Compound 215]: on GLP-1R (Table 3A), the maximum response (Emax) was found to be 103%. Also, on GLP-1R (setting [1]), the EC50 is 1 to 10 nM.

Regarding `CCCCCCCCCCCCCCCC(=O)N[C@@H](CCC(=O)NCCCC[C@H](NC(=O)[C@H](CO)NC(=O)[C@@H]1CCCN1C(=O)[C@@H]1CCCN1C(=O)[C@@H]1CCCN1C(=O)[C@H](C)NC(=O)CNC(=O)[C@H](CO)NC(=O)[C@H](CO)NC(=O)[C@@H]1CCCN1C(=O)CNC(=O)CNC(=O)[C@H](C)NC(=O)[C@H](CC(C)C)NC(=O)[C@H](CC(C)C)NC(=O)[C@H](Cc1c[nH]c2ccccc12)NC(=O)[C@H](CC(N)=O)NC(=O)[C@@H](NC(=O)[C@H](Cc1ccccc1)NC(=O)[C@H](CCC(=O)O)NC(=O)C(C)(C)NC(=O)[C@H](C)NC(=O)[C@H](C)NC(=O)[C@H](CCC(N)=O)NC(=O)[C@H](CCCCN)NC(=O)[C@H](CC(=O)O)NC(=O)[C@H](CC(C)C)NC(=O)[C@H](Cc1ccc(O)cc1)NC(=O)[C@@H](NC(=O)[C@H](CO)NC(=O)[C@H](Cc1ccc(O)cc1)NC(=O)[C@H](CC(=O)O)NC(=O)[C@H](CO)NC(=O)[C@@H](NC(=O)[C@H](Cc1ccccc1)NC(=O)[C@@H](NC(=O)CNC(=O)[C@@H](CCc1nn[nH]n1)NC(=O)CSCC(=O)NCCN1CCCCC1=O)[C@@H](C)O)[C@@H](C)O)[C@@H](C)CC)C(C)C)C(N)=O)C(=O)O` [Compound 222], on GLP-1R (Table 3A), the Emax turned out to be 99%. Also, the EC50 on GLP-1R (setting [1]) fell in the range of 1 to 10 nM.

Source of the values: patent US20260176320A1, “MODULATORS OF G-PROTEIN COUPLED RECEPTORS” (priority 2018, published 2026).
